This passage reports T/C results from PubChem BioAssay AID192 (DTP/NCI, 2004).

Values joined by “and” are separate entries in the source; they are usually repeats but may differ in a detail not shown here. Equal entries are not always repeated. Toxic doses and inconclusive results are not listed.

The test has as its system BDF1 mice, B16 melanoma ip, median survival T/C. As to the kind of experiment: NCI In Vivo Anticancer Drug Screen. Data for tumor model B16 Melanoma (intraperitoneal) in B6D2F1 (BDF1) mice. The conditions noted are these: endpoint: median survival time, higher = longer survival. The essentials: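 Read-out: survival or tumor size, given as treated/control ratio. Controls received vehicle only; animals bore transplantable tumors.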

[1] abbreviates: dose: 200.0 mg/kg/injection, schedule: Q01DX009 (ip), vehicle: saline.
[2] abbreviates: dose: 1.56 mg/kg/injection, schedule: Q01DX009 (ip), vehicle: water.
The mark [3] stands for this setting: dose: 3.13 mg/kg/injection, schedule: Q01DX009 (ip), vehicle: water.
Where [4] appears, read: dose: 100.0 mg/kg/injection, schedule: Q04DX003 (ip), vehicle: Klucel (hydroxypropylcellulose) (HPC).
The mark [5] stands for this setting: dose: 200.0 mg/kg/injection, schedule: Q04DX003 (ip), vehicle: Klucel (hydroxypropylcellulose) (HPC).
[6] abbreviates: dose: 400.0 mg/kg/injection, schedule: Q04DX003 (ip), vehicle: Klucel (hydroxypropylcellulose) (HPC).

Consider `CC(C)=CCC1=C(O)c2ccccc2C(=O)C1=O`, for which the T/C (dose: 6.25 mg/kg/injection, schedule: Q01DX009 (ip), vehicle: saline with Tween-80) is 90 % of control; the T/C (dose: 8.33 mg/kg/injection, schedule: Q#B X027 (ip), vehicle: water) is 100 % of control; the T/C (dose: 12.5 mg/kg/injection, schedule: Q01DX009 (ip), vehicle: saline with Tween-80) is 90 % of control; the T/C (dose: 16.66 mg/kg/injection, schedule: Q#B X027 (ip), vehicle: water) is 103 % of control; the T/C (dose: 16.66 mg/kg/injection, schedule: Q#B X027 (sc), vehicle: water) is 106 % of control; the T/C (dose: 25.0 mg/kg/injection, schedule: Q#A X018 (oral), vehicle: water) is 90 % of control. Besides, the T/C is 100 % of control (dose: 33.33 mg/kg/injection, schedule: Q#B X027 (ip), vehicle: water); 100 % of control (dose: 33.33 mg/kg/injection, schedule: Q#B X027 (oral), vehicle: water); 106 % of control (dose: 33.33 mg/kg/injection, schedule: Q#B X027 (sc), vehicle: water); 88 % of control and 97 % of control (dose: 50.0 mg/kg/injection, schedule: Q01DX009 (ip), vehicle: saline with Tween-80); 86 % of control (dose: 50.0 mg/kg/injection, schedule: Q#A X018 (oral), vehicle: water); 96 % of control (dose: 66.66 mg/kg/injection, schedule: Q#B X027 (ip), vehicle: water). Moreover, the T/C by setting is: (dose: 66.66 mg/kg/injection, schedule: Q#B X027 (oral), vehicle: water) 106 % of control; (dose: 66.66 mg/kg/injection, schedule: Q#B X027 (sc), vehicle: water) 93 % of control; (dose: 100.0 mg/kg/injection, schedule: Q01DX009 (ip), vehicle: saline with Tween-80) 95 % of control; (dose: 100.0 mg/kg/injection, schedule: Q01DX018 (oral), vehicle: water) 106 % of control; (dose: 100.0 mg/kg/injection, schedule: Q#A X018 (oral), vehicle: water) 100 % of control; (dose: 133.33 mg/kg/injection, schedule: Q#B X027 (oral), vehicle: water) 120 % of control. The T/C is 93 % of control (dose: 133.33 mg/kg/injection, schedule: Q#B X027 (sc), vehicle: water); 96 % of control (dose: 175.0 mg/kg/injection, schedule: Q01DX018 (oral), vehicle: water); 113 % of control (dose: 175.0 mg/kg/injection, schedule: Q#A X018 (oral), vehicle: water); 95 % of control (dose: 200.0 mg/kg/injection, schedule: Q01DX009 (ip), vehicle: saline with Tween-80); 119 % of control under setting [1]; 106 % of control (dose: 250.0 mg/kg/injection, schedule: Q01DX018 (oral), vehicle: water). In addition, the T/C was 106 % of control (dose: 250.0 mg/kg/injection, schedule: Q#A X018 (oral), vehicle: water) and 113 % of control (dose: 325.0 mg/kg/injection, schedule: Q01DX018 (oral), vehicle: water).
In the case of `O=CC(NC(=O)N(CCF)N=O)C(O)C(O)C(O)CO` (configuration not stated), the T/C (dose: 3.12 mg/kg/injection, schedule: Q01DX001 (ip), vehicle: saline) is 100 % of control; the T/C (dose: 25.0 mg/kg/injection, schedule: Q01DX001 (ip), vehicle: saline) is 171 % of control; the T/C (dose: 50.0 mg/kg/injection, schedule: Q01DX001 (ip), vehicle: saline) was 189 % of control; the T/C (dose: 100.0 mg/kg/injection, schedule: Q01DX001 (ip), vehicle: saline) is 231 % of control.
With `COc1cccc2c1C(=O)c1c(O)c3c(c(O)c1C2=O)C[C@@](O)(C(=O)CN1CCN(C)CC1)C[C@@H]3OC1CC(N)C(O)C(C)O1` (some centres not stated), the T/C was 110 % of control under setting [2] and 113 % of control under setting [3].
For `O=C1CC2(C(=O)N1CN1CCOCC1)c1ccccc1-c1ccccc12`, the T/C by setting is: (dose: 25.0 mg/kg/injection, schedule: Q01DX009 (ip), vehicle: Klucel (hydroxypropylcellulose) (HPC)) 103 % of control; (dose: 50.0 mg/kg/injection, schedule: Q01DX009 (ip), vehicle: Klucel (hydroxypropylcellulose) (HPC)) 98 % of control; (dose: 100.0 mg/kg/injection, schedule: Q01DX009 (ip), vehicle: Klucel (hydroxypropylcellulose) (HPC)) 98 % of control; (dose: 200.0 mg/kg/injection, schedule: Q01DX009 (ip), vehicle: Klucel (hydroxypropylcellulose) (HPC)) 107 % of control; (dose: 400.0 mg/kg/injection, schedule: Q01DX009 (ip), vehicle: Klucel (hydroxypropylcellulose) (HPC)) 115 % of control.
`[Cu+2].[NH-]C1(C(=O)O)CCCC1.[NH-]C1(C(=O)O)CCCC1`: the T/C was 93 % of control (dose: 2.5 mg/kg/injection, schedule: Q01DX009 (ip), vehicle: saline with Tween-80); 93 % of control (dose: 5.0 mg/kg/injection, schedule: Q01DX009 (ip), vehicle: saline with Tween-80); 93 % of control (dose: 10.0 mg/kg/injection, schedule: Q01DX009 (ip), vehicle: saline with Tween-80).
On to `O=C(/C(=C/c1ccccc1)CBr)c1ccccc1`, for which the T/C is 89 % of control (dose: 0.13 mg/kg/injection, schedule: Q01DX009 (ip), vehicle: saline with Tween-80); 100 % of control (dose: 0.25 mg/kg/injection, schedule: Q01DX009 (ip), vehicle: saline with Tween-80); 86 % of control and 100 % of control (dose: 0.5 mg/kg/injection, schedule: Q01DX009 (ip), vehicle: saline with Tween-80); 89 % of control and 92 % of control (dose: 1.0 mg/kg/injection, schedule: Q01DX009 (ip), vehicle: saline with Tween-80); 89 % of control (dose: 2.0 mg/kg/injection, schedule: Q01DX009 (ip), vehicle: saline with Tween-80); 89 % of control (dose: 4.0 mg/kg/injection, schedule: Q01DX009 (ip), vehicle: saline with Tween-80).
For the compound `CCC[P+](c1ccccc1)(c1ccccc1)c1ccccc1`, the T/C (dose: 2.0 mg/kg/injection, schedule: Q01DX009 (ip), vehicle: saline) is 96 % of control; the T/C (dose: 4.0 mg/kg/injection, schedule: Q01DX009 (ip), vehicle: saline) is 98 % of control; the T/C (dose: 8.0 mg/kg/injection, schedule: Q01DX009 (ip), vehicle: saline) is 115 % of control; the T/C (dose: 16.0 mg/kg/injection, schedule: Q01DX009 (ip), vehicle: saline) is 115 % of control; the T/C (dose: 32.0 mg/kg/injection, schedule: Q01DX009 (ip), vehicle: saline) is 108 % of control.
As to `NC(=O)CCC(N)C(=O)O.[Cl-].[Cl-].[Cl-].[Cl-].[Pt+2]` (configuration not stated), the T/C was 110 % of control under setting [2]; 110 % of control under setting [3]; 120 % of control (dose: 12.5 mg/kg/injection, schedule: Q01DX009 (ip), vehicle: water); 112 % of control (dose: 25.0 mg/kg/injection, schedule: Q01DX009 (ip), vehicle: water).
As to `C=CCNC(=O)c1ccccc1SC(C)=O`, the T/C runs as follows: (dose: 100.0 mg/kg/injection, schedule: Q01DX009 (ip), vehicle: saline + Tween-80 + alcohol) 101 % of control; (dose: 200.0 mg/kg/injection, schedule: Q01DX009 (ip), vehicle: saline + Tween-80 + alcohol) 116 % of control; (dose: 400.0 mg/kg/injection, schedule: Q01DX009 (ip), vehicle: saline + Tween-80 + alcohol) 124 % of control.
Take `CCCCNC(C)(C)C(SSC(c1ccc(Cl)cc1)C(C)(C)NCCCC)c1ccc(Cl)cc1` (configuration not stated): the T/C was 109 % of control (dose: 6.25 mg/kg/injection, schedule: Q01DX009 (ip), vehicle: saline); 97 % of control (dose: 12.5 mg/kg/injection, schedule: Q01DX009 (ip), vehicle: saline); 88 % of control (dose: 25.0 mg/kg/injection, schedule: Q01DX009 (ip), vehicle: saline).
With `O=C(NCCCl)N(c1ccccc1)c1cccc(C(F)(F)F)c1`, the T/C reads like this: under setting [4], 114 % of control; under setting [5], 105 % of control; under setting [6], 106 % of control.
For `CCOC(=O)NC(C)(C)CN(CCCO)C(=O)OCC`, in that order: 100 % of control, 100 % of control and 97 % of control.
Regarding `CC1(C)COC(c2ccccc2)=N1`, the T/C is, setting by setting: (dose: 100.0 mg/kg/injection, schedule: Q01DX009 (ip), vehicle: saline) 123 % of control; under setting [1], 115 % of control.
Take `Cc1ccccc1NC(=O)Nc1ccccc1F`: the T/C was 93 % of control under setting [4], 93 % of control under setting [5] and 100 % of control under setting [6].
